Source: patent publication US11629154B2, “Tetrahydropyranooxazine derivatives having selective BACE1 inhibitory activity” (SHIONOGI & CO., LTD., priority 2018, dated 2023)

Legend:
[1] = target: human ether-a-go-go related gene (hERG) channel (Homo sapiens (Human), UniProt Q12809); experiment: hERG test; type: cell-based; details: CHO cells expressing hERG
Text: For the purpose of assessing risk of an electrocardiogram QT interval prolongation, effects on delayed rectifier K+ current (IKr), which plays an important role in the ventricular repolarization process of the compound of the present invention, was studied using CHO cells expressing human ether-a-go-go related gene (hERG) channel.
A cell was retained at a membrane potential of −80 mV by whole cell patch clamp method using an automated patch clamp system (QPatch; Sophion Bioscience A/S). After application of leak potential at −50 mV, IKr induced by depolarization pulse stimulation at +20 mV for 2 seconds and, further, repolarization pulse stimulation at −50 mV for 2 seconds was recorded.
Further, the % inhibition relative to the tail peak current before application of the compound of the present invention was calculated, and compared with the vehicle-applied group (0.1% dimethyl sulfoxide solution) to assess influence of the compound of the present invention on IKr.

CYP3A4 = CYP3A4 (Homo sapiens (Human), UniProt P08684); experiment: CYP3A4(MDZ) MBI test; type: in vitro ADME; details: pooled human liver microsomes, midazolam 1-hydroxylation, preincubation 0 or 30 minutes
Experimental: CYP3A4(MDZ) MBI test is a test of investigating mechanism based inhibition (MBI) potential on CYP3A4 inhibition of a compound. CYP3A4 inhibition is evaluated using 1-hydroxylation reaction of midazolam (MDZ) by pooled human liver microsomes as a marker reaction.
The reaction conditions were as follows: substrate, 10 μmol/L MDZ; pre-reaction time, 0 or 30 minutes; substrate reaction time, 2 minutes; reaction temperature, 37° C.; protein content of pooled human liver microsomes, 0.5 mg/mL at pre-reaction time, […] (at 10-fold dilution) at reaction time; concentrations of the compound of the present invention, 1, 5, 10, 20 μmol/L (4 points).
Pooled human liver microsomes in a K-Pi buffer (pH 7.4) and a compound of the present invention solution as a pre-reaction solution were added to a 96-well plate at the composition of the pre-reaction. A part of pre-reaction solution was transferred to another 96-well plate, and diluted 10-fold by a substrate in a K-Pi buffer. NADPH as a co-factor was added to initiate the marker reaction (without preincubation). After a predetermined time of the marker reaction, methanol/acetonitrile=1/1 (v/v) solution was added in order to terminate the marker reaction. On the other hand, NADPH was also added to a remaining pre-reaction solution in order to initiate a pre-reaction (with preincubation). After a predetermined time of a pre-reaction, a part was transferred to another 96-well plate, and diluted 10-fold by a substrate in a K-Pi buffer in order to initiate the marker reaction. After a predetermined time of the marker reaction, methanol/acetonitrile=1/1 (v/v) solution is added in order to terminate the marker reaction. After centrifuged at 3000 rpm for 15 minutes, 1-hydroxymidazolam in the supernatant is quantified by LC/MS/MS.
The sample adding DMSO to a reaction system instead of compound of the present invention solution was adopted as a control (100%) because DMSO is used as a solvent to dissolve a compound of the present invention. Remaining activity (%) was calculated at each concentration of the compound of the present invention added as the solution, and IC50 value was calculated by reverse-presumption using a logistic model with a concentration and an inhibition rate. Shifted IC value was calculated as “IC value without preincubation (0 minutes)/IC value with preincubation (30 minutes)″. When a shifted IC value was 1.5 or more, this was defined as positive. When a shifted IC value was less than 1.1, this was defined as negative.

[2] = test system: Abeta 1-42 in cerebrospinal fluid (CSF); experiment: Pharmacology in the beagle dog: beta-amyloid profile in CSF; type: in vivo
Experimental: Test compounds were tested to evaluate the effect on the beta-amyloid profile in cerebrospinal fluid (CSF) of dogs after a single dose, in combination with pharmacokinetic (PK) follow up and limited safety evaluation.
In the case of compounds shown below, two or 4 beagle dogs (1 or 2 male, 1 or 2 female) were dosed with vehicle (1 mL/kg of an aqueous solution of 20% cyclodextrin) and 4 beagle dogs (2 males and 2 females) per dose group were dosed with test compound at the doses indicated in Table 20 in an aqueous 20% cyclodextrin solution with a concentration in mg/mL identical to the dose given in mg/kg) on an empty stomach.
CSF was taken in conscious animals directly from the lateral ventricle via a cannula which was screwed in the skull and covered with subcutaneous tissue and skin, before and at 4, 8, 25 and 49 hours after dosing. Eight hours after dosing the animals got access to their regular meal for 30 minutes. Blood was taken for PK follow up (0.5, 1, 2, 4, 8, 25 and 49 hours) and serum samples for biochemistry were taken before and at 8 and 25h after dosing. The CSF samples were used for measurement of Abeta 1-37, Abeta 1-38, Abeta 1-40 and Abeta 1-42.

human ether-a-go-go related gene (hERG) channel, sequence (Q12809 whole entry): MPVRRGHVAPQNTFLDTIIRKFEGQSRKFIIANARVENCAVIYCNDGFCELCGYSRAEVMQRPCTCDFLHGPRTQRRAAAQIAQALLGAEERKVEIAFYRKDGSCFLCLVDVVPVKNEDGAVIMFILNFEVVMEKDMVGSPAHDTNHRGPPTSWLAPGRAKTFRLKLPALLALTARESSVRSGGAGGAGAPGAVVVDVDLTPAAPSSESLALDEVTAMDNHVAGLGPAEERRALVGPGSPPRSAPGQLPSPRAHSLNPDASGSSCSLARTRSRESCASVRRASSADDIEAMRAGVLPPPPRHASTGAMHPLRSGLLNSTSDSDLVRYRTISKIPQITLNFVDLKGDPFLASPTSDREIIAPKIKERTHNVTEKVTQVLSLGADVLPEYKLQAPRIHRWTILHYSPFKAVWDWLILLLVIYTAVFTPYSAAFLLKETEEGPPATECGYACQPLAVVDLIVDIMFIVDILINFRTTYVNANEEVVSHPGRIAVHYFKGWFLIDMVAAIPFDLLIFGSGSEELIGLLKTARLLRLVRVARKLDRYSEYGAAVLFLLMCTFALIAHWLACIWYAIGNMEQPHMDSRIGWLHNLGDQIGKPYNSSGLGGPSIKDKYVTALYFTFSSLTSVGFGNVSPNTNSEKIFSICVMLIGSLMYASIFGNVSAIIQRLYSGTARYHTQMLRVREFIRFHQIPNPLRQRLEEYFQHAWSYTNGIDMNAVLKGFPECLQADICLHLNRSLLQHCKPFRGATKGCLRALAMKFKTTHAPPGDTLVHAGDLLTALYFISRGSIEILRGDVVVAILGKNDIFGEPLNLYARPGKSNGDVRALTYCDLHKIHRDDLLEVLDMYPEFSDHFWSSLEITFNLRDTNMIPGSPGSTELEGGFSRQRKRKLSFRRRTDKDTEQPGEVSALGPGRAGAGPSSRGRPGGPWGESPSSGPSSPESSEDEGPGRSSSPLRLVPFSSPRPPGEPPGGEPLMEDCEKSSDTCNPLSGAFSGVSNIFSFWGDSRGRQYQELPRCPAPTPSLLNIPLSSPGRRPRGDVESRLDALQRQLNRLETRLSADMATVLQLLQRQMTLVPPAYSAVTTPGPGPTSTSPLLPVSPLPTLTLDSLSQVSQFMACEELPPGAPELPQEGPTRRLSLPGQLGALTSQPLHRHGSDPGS
CYP3A4, sequence (P08684 whole entry): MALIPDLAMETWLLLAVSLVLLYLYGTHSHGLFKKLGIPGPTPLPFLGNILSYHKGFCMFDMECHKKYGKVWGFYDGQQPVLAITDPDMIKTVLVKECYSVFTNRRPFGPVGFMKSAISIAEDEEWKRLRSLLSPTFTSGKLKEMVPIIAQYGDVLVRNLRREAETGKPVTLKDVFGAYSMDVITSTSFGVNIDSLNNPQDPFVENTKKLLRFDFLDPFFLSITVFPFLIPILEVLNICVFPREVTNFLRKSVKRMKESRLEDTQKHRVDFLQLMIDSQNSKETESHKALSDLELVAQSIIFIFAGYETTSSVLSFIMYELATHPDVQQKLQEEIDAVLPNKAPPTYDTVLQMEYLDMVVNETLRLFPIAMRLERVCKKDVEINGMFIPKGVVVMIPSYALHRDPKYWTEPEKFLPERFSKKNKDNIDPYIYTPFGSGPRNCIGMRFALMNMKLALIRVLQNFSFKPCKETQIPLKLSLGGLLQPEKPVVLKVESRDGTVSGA

Row | SMILES | hERG inhibition (%) at 3 μM [1] [%] | MBI MDZ (CYP3A4) | % Decrease in Abeta 1-42 at 8 h post dosing compared to own baseline ([2]; single dose 0.31 mg/kg) [%] | % Decrease in Abeta 1-42 at 8 h post dosing compared to own baseline ([2]; single dose 0.63 mg/kg) [%] | % Decrease in Abeta 1-42 at 24 h^(a) or 25 h^(b) post dosing compared to own baseline ([2]; single dose 0.63 mg/kg) [%] | also measured
1 | NC1=N[C@](CF)(c2cc(NC(=O)c3cnc(OCF)cn3)ccc2F)[C@H]2COCC[C@H]2O1 [Compound I-007] | 6.83 | Negative (When a shifted IC value was less than 1.1, this was defined as negative) | −61 | −69 | −48 | % Decrease in Abeta 1-42 at 24 h^(a) or 25 h^(b) post dosing compared to own baseline ([2]; single dose 0.31 mg/kg): −23%; % Decrease in Abeta 1-42 at 8 h post dosing compared to own baseline ([2]; single dose 3.75 mg/kg): −64%; % Decrease in Abeta 1-42 at 24 h^(a) or 25 h^(b) post dosing compared to own baseline ([2]; single dose 3.75 mg/kg): −82%; % Decrease in Abeta 1-42 at 49 h post dosing compared to own baseline ([2]; single dose 3.75 mg/kg): −40%
2 | C[C@@H]1C[C@H]2OC(N)=N[C@](CF)(c3cc(NC(=O)c4cnc(OCF)cn4)ccc3F)[C@H]2CO1 [Compound I-008] | 18.5 | Negative (When a shifted IC value was less than 1.1, this was defined as negative) | −57 | −58 | −48 | % Decrease in Abeta 1-42 at 24 h^(a) or 25 h^(b) post dosing compared to own baseline ([2]; single dose 0.31 mg/kg): −28%; % Decrease in Abeta 1-42 at 49 h post dosing compared to own baseline ([2]; single dose 0.31 mg/kg): −25%; % Decrease in Abeta 1-42 at 8 h post dosing compared to own baseline ([2]; single dose 2.5 mg/kg): −81%; % Decrease in Abeta 1-42 at 24 h^(a) or 25 h^(b) post dosing compared to own baseline ([2]; single dose 2.5 mg/kg): −76%; % Decrease in Abeta 1-42 at 49 h post dosing compared to own baseline ([2]; single dose 2.5 mg/kg): −49%
3 | NC1=N[C@](CF)(c2cc(NC(=O)c3cnc(-n4cncn4)cn3)ccc2F)[C@H]2COCC[C@H]2O1 [Compound I-047] | 11.6 | Negative (When a shifted IC value was less than 1.1, this was defined as negative) |  |  |  | 
4 | C[C@@H]1C[C@H]2OC(N)=N[C@](CF)(c3cc(NC(=O)c4cnc(OCF)cn4)ccc3Cl)[C@H]2CO1 [Compound I-065] | 37.8 | Negative (When a shifted IC value was less than 1.1, this was defined as negative) |  | −49 | −52 | % Decrease in Abeta 1-42 at 49 h post dosing compared to own baseline ([2]; single dose 0.63 mg/kg): −20%; % Decrease in Abeta 1-42 at 8 h post dosing compared to own baseline ([2]; single dose 1.25 mg/kg): −59%; % Decrease in Abeta 1-42 at 24 h^(a) or 25 h^(b) post dosing compared to own baseline ([2]; single dose 1.25 mg/kg): −56%; % Decrease in Abeta 1-42 at 49 h post dosing compared to own baseline ([2]; single dose 1.25 mg/kg): −34%
5 | COc1cnc(C(=O)Nc2ccc(F)c([C@@]3(CF)N=C(N)O[C@@H]4CCOC[C@@H]43)c2)cn1 [Compound I-067] | 5.39 | Negative (When a shifted IC value was less than 1.1, this was defined as negative) | −36 | −64 |  | 
6 | NC1=N[C@](CF)(c2cc(NC(=O)c3cnc(OC(F)F)cn3)ccc2F)[C@H]2COCC[C@H]2O1 [Compound I-076] | 18.5 | Negative (When a shifted IC value was less than 1.1, this was defined as negative) | −68 | −65 |  | 
7 | NC1=N[C@](CF)(c2cc(NC(=O)c3ccc(C(F)(F)F)cn3)ccc2F)[C@H]2COCC[C@H]2O1 [Compound I-105] | 40.8 | Negative (When a shifted IC value was less than 1.1, this was defined as negative) |  |  |  | 
